Experimental data from patent US20100298141A1, “SUBSTITUTED PYRIDINE N-OXIDE HERBICIDES” (E. I. DU PONT DE NEMOURS AND COMPANY, priority 2007, published 2010).

Assays:
crabgrass = test: Test A pre-/postemergence greenhouse test; type: in vivo, Digitaria sanguinalis; conditions: for Crabgrass, Large plant response rating: 0 to 100 scale
In short: (§1)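 Untreated controls served as the reference for visual injury ratings taken about ten days after spraying. The non-phytotoxic solvent/surfactant formulation was applied preemergence to seeded loam and sand and postemergence to plants two to ten cm high.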

giant foxtail = test: Test A pre-/postemergence greenhouse test; type: in vivo, Setaria faberi; conditions: for Foxtail, Giant plant response rating: 0 to 100 scale
In short: as §1

morningglory [1] = test: Test A pre-/postemergence greenhouse test; type: in vivo, Ipomoea spp.; conditions: 500 g ai/ha
In short: as §1

wheat [2] = test: Test A pre-/postemergence greenhouse test; type: in vivo, Triticum aestivum; conditions: for Wheat plant response rating: 0 to 100 scale
In short: as §1

corn = test: Test A pre-/postemergence greenhouse test; type: in vivo, Zea mays; conditions: 500 g ai/ha
In short: as §1

Italian ryegrass = test: Test C pre-/postemergence test; type: in vivo, Lolium multiflorum
In short: (§2)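 Test chemicals were formulated with surfactant in a non-phytotoxic solvent and sprayed both on freshly planted seeds (preemergence) and on 1- to 4-leaf plants of 2–18 cm (postemergence). Flooded-paddy pots received compound directly into 3 cm of standing water, maintained for the test.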

wheat [3] = test: Test C pre-/postemergence test; type: in vivo, Triticum aestivum; conditions: for Wheat plant response rating: preemergence, scale 0 (no effect) to 100 (complete control)
In short: as §2

catchweed bedstraw = test: Test C pre-/postemergence test; type: in vivo, Galium aparine
In short: as §2

bermudagrass = test: Test C pre-/postemergence test; type: in vivo, Cynodon dactylon
In short: as §2

Goosegrass = test: Test C pre-/postemergence test; type: in vivo, Eleusin indica
In short: as §2

morningglory [4] = test: Test C pre-/postemergence test; type: in vivo, Ipomoea coccinea
In short: as §2

yellow nutsedge = test: Test C pre-/postemergence test; type: in vivo, Cyperus esculentus
In short: as §2

pigweed = test: Test C pre-/postemergence test; type: in vivo, Amaranthus retroflexus
In short: as §2

soybean = test: Test C pre-/postemergence test; type: in vivo, Glycine max
In short: as §2

[5] = system: common (oilseed) sunflower; test: Test C pre-/postemergence test; type: in vivo, Helianthus annuus; conditions: for Sunflower plant response rating: preemergence, scale 0 (no effect) to 100 (complete control)
In short: as §2

umbrella sedge = test: Test C flooded paddy test; type: in vivo, Cyperus difformis; conditions: Flood
In short: (§3)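 Flooded 3 cm over soil; compound into paddy water; depth kept constant. Greenhouse 13–15 d.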

barnyardgrass = test: Test C flooded paddy test; type: in vivo, Echinochloa crus-galli; conditions: Flood
In short: as §3

[6] = Postemergence, 125 g ai/ha, 0 is no effect, 100 is complete control
[7] = Postemergence, 500 g ai/ha, 0 is no effect, 100 is complete control
[8] = Preemergence, 125 g ai/ha, 0 no effect, 100 complete control
[9] = Preemergence, 500 g ai/ha, 0 to 100 scale where 0 is no effect and 100 is complete control
[10] = Postemergence, 0 to 100 scale, 0 is no effect, 100 is complete control
[11] = Preemergence, 0 to 100 scale where 0 is no effect and 100 is complete control
[12] = 31 g ai/ha, Preemergence, scale 0 to 100
[13] = 62 g ai/ha, preemergence, scale 0 (no effect) to 100 (complete control)
[14] = preemergence, 125 g ai/ha, scale 0 (no effect) to 100 (complete control)
[15] = 31 g ai/ha, scale 0 to 100 (0 no effect, 100 complete control)
[16] = 62 g ai/ha, scale 0 to 100, 0 no effect, 100 complete control, 13 to 15 days
[17] = 125 g ai/ha, scale 0 to 100, 0 no effect, 100 complete control, 13 to 15 days
[18] = 250 g ai/ha, scale 0 to 100 (0 no effect, 100 complete control)

## Cn1nc(C(F)(F)F)c(CS(=O)(=O)c2ccc(Cl)c[n+]2[O-])c1OC(F)F [Compound 7]
crabgrass; [6]
  Crabgrass, Large plant response rating: 70
crabgrass; [7]
  Crabgrass, Large plant response rating: 80
crabgrass; [8]
  Crabgrass, Large plant response rating: 90
crabgrass; [9]
  Plant response rating, Crabgrass, Large: 90
Giant foxtail; [6]
  Foxtail, Giant plant response rating: 30
Giant foxtail; [7]
  Foxtail, Giant plant response rating: 70
Giant foxtail; [8]
  Foxtail, Giant plant response rating: 90
Giant foxtail; [9]
  Plant response rating, Foxtail, Giant: 90
Morningglory [1]; [10]
  Morningglory plant response rating: 10
Morningglory [1]; [11]
  Plant response rating, Morningglory: 30
Wheat [2]; [6]
  Wheat plant response rating: 0
Wheat [2]; [7]
  Wheat plant response rating: 20
Wheat [2]; [8]
  Wheat plant response rating: 20
Wheat [2]; [9]
  Plant response rating, Wheat: 50
corn; [10]
  Corn plant response rating: 20
corn; [11]
  Plant response rating, Corn: 30
Italian ryegrass; [12]
  Ryegrass, Italian plant response rating: 0
Italian ryegrass; [13]
  Ryegrass, Italian plant response rating: 40
Italian ryegrass; Preemergence, 250 g ai/ha
  Plant response rating (0 to 100), Ryegrass, Italian: 50
Italian ryegrass; [14]
  Ryegrass, Italian plant response rating: 50
Wheat [3]; 62 g ai/ha
  Wheat plant response rating: 10
Wheat [3]; Preemergence, 250 g ai/ha
  Plant response rating (0 to 100), Wheat: 30
Wheat [3]; 125 g ai/ha
  Wheat plant response rating: 20
Catchweed bedstraw; [12]
  Galium plant response rating: 40
Catchweed bedstraw; [13]
  Galium plant response rating: 85
Catchweed bedstraw; Preemergence, 250 g ai/ha
  Plant response rating (0 to 100), Galium: 95
Catchweed bedstraw; [14]
  Galium plant response rating: 90
bermudagrass; [12]
  Bermudagrass plant response rating: 100
bermudagrass; [13]
  Bermudagrass plant response rating: 100
bermudagrass; Preemergence, 250 g ai/ha
  Plant response rating (0 to 100), Bermudagrass: 100
bermudagrass; [14]
  Bermudagrass plant response rating: 100
Goosegrass; [12]
  Goosegrass plant response rating: 100
Goosegrass; [13]
  Goosegrass plant response rating: 100
Goosegrass; Preemergence, 250 g ai/ha
  Plant response rating (0 to 100), Goosegrass: 100
Goosegrass; [14]
  Goosegrass plant response rating: 100
Morningglory [4]; [12]
  Morningglory plant response rating: 0
Morningglory [4]; [13]
  Morningglory plant response rating: 0
Morningglory [4]; Preemergence, 250 g ai/ha
  Plant response rating (0 to 100), Morningglory: 0
Morningglory [4]; [14]
  Morningglory plant response rating: 0
Yellow nutsedge; [12]
  Nutsedge, Yellow plant response rating: 0
Yellow nutsedge; [13]
  Nutsedge, Yellow plant response rating: 0
Yellow nutsedge; Preemergence, 250 g ai/ha
  Plant response rating (0 to 100), Nutsedge, Yellow: 100
Yellow nutsedge; [14]
  Nutsedge, Yellow plant response rating: 98
pigweed; [12]
  Pigweed plant response rating: 100
pigweed; [13]
  Pigweed plant response rating: 100
pigweed; Preemergence, 250 g ai/ha
  Plant response rating (0 to 100), Pigweed: 100
pigweed; [14]
  Pigweed plant response rating: 100
soybean; [12]
  Soybean plant response rating: 0
soybean; [13]
  Soybean plant response rating: 0
soybean; Preemergence, 250 g ai/ha
  Plant response rating (0 to 100), Soybean: 30
soybean; [14]
  Soybean plant response rating: 0
[5]; 62 g ai/ha
  Sunflower plant response rating: 0
[5]; Preemergence, 250 g ai/ha
  Plant response rating (0 to 100), Sunflower: 0
[5]; 125 g ai/ha
  Sunflower plant response rating: 0
Umbrella sedge; [15]
  Plant response rating, Sedge, Umbrella: 0
Umbrella sedge; [16]
  Plant response rating, Sedge, Umbrella: 40
Umbrella sedge; [17]
  Plant response rating, Sedge, Umbrella: 55
Umbrella sedge; [18]
  Plant response rating, Sedge, Umbrella: 60
barnyardgrass; [15]
  Plant response rating, Barnyardgrass: 0
barnyardgrass; [16]
  Plant response rating, Barnyardgrass: 0
barnyardgrass; [17]
  Plant response rating, Barnyardgrass: 0
barnyardgrass; [18]
  Plant response rating, Barnyardgrass: 20
